Measured values taken from patent US9539341B2, “Methods and compositions for targeting adipose cells in mammals” (Board of Regents, the University of Texas System, priority 2011, dated 2017).

Experiments:
[1] = tested on: perivascular WAT cells (PDGFRβ+ ASC); assay: Biodistribution of biotinylated synthetic cyclic peptide (streptavidin-Cy3), WAT; type: in vivo, mouse; conditions: biotinylated cyclic peptide i.v., 1 hr, CD31 / CD45 co-staining
Description: (§1) FIGS. 2A-J depict the validation of cyclic WAT7 Peptide (SEQ ID NOS: 13) Homing to ASC. Panels A-D are confocal anti-phage (red) and anti-CD31 (bright green) immunofluorescence in paraffin sections of formalin-fixed WAT and lung from mice intravenously injected with phage displaying WAT-homing peptide WAT7 (SEQ ID NOS: 13 AND 14) or a lung-homing peptide LU2 (SEQ ID NOS: 19). […] upon digital channel merging indicates localization (arrow) of phage on non-endothelial perivascular cells observed for WAT7 (SEQ ID NOS: 13) in WAT (A) but not in lung (B), and for LU2 (SEQ ID NO: 19) in lung (D) but not in WAT (C). […] Note the association (arrow) of cyclic WAT7 (SEQ ID NOS: 13) specifically with perivascular WAT cells (E) in a pattern overlapping with PDGFRβ expressed on ASC (F-G). Like PDGFRβ, WAT7 is not associated with CD31+ endothelial cells (E) or CD45+ hematopoietic cells (H). WAT7 was not detected in lung (I) despite the abundance of PDGFRβ+LSC (J). Nuclear TOPRO3 staining is blue. Scale bar: 100 μM.
(§2) Mouse Tissue and Cell Analysis by Immunofluorescence: Peptides chemically synthesized, cyclized via their N- and C-terminal cysteines, purified to at least 95% purity (Genemed), and biotinylated were injected (500 μg) via tail vein and allowed to circulate for 1 hr. […] Fluorescence images were acquired with an Olympus IX70 inverted fluorescence microscope/Magnafire software (Olympus). […]

[2] = tested on: CD34+CD31−CD45− cells (MSC) from WAT; assay: Synchronous in vivo phage display biopanning, clones recovered from WAT MSC (ASC); parameters: species or system mouse; conditions: percent of sequenced phage clones carrying the insert in WAT after 4 rounds of synchronous in vivo biopanning on CD34+CD31−CD45− cells
Description: (§3) Phage Library Screening: Random peptide libraries based on the M13-derived bacteriophage vector fUSE5 displaying inserts CX7C, CX8C, and CX9C on the pIII protein were admixed (1:1:1) to the combined 10^10 TU of mixed library for the screen performed based on the synchronous biopanning in vivo upon tail vein injection (see for example, US20050074747 and Arap, et al., Nat. Med. 8:121-127, 2002; Kolonin, et al., FASEB J. 20: 979-981, 2006).
(§4) For competitive homing experiment, 5×10^9 TU for each of the 11 chosen phage clones were admixed and the combined 5.5×10^10 TU was injected. For validation of individual clones, 1×10^10 TU for each phage clones was injected. After 1 hr of circulation and heart perfusion with 10 ml of phosphate buffer saline (PBS), WAT, tibia/femurs, bone-associated skeletal muscle, and lungs were collected. Bone marrow was isolated by flushing tibia/femurs. Hematopoietic and endothelial cells were depleted from cell suspensions of each organ by Dynabeads (Invitrogen) coated with anti-TER119, anti-CD31, and anti-CD45 antibodies (BD Biosciences), after which the remaining cells were processed by FACS to purify CD34+CD31−CD45− cells. Bound phage were recovered by infecting K91 E. coli, quantified by phage transforming unit (TU) counting, and processed for sequencing of the peptide-coding DNA as described in Arap, et al. 2002, ibid and Kolonin, et al., 2006, ibid. For identification of conserved peptide motifs, ClustalW2 software was used.
(§5) Methods for isolation of MSC by fluorescence-activated cell sorting (FACS) from organ cell suspensions based on the C34+CD31−CD45− immunophenotype (FIG. 8B) were combined with phage display and optimized for ASC. By adapting the previously described “synchronous in vivo biopanning” method of (Kolonin et al., 2006, ibid), a mixture of cyclic CX7C, CX8C, and CX9C (C: disulfide-bonded cysteines; X: any amino acid) random peptide libraries was screened (FIG. 1A). This approach made it possible to select MSC probes from the pool of over 10^11 combinatorial peptides. Throughout the screen, progressive enrichment in the number of phage particles recovered on MSC from WAT, as well as from the chosen control organs: lung, bone marrow, and skeletal muscle (FIG. 1B) was observed.
(§6) After 4 rounds of synchronous in vivo biopanning, eight CX7C and CX8C sequences repeatedly recovered from ASC with frequency above 1% were identified, which were termed WAT1 through WAT8 (see Table 1 below). In parallel, a matched number of peptide inserts homing to lung stromal cells (LSC) were sequenced as a control. None of the WAT-homing peptides were enriched in the lung. Four sequences repeatedly recovered in the lung with frequency above 1%, were termed LU1 through LU4 (see Table 1 below). […] Because the focus of this study is WAT-specific MSC, this clone was excluded from further analysis. Other selected peptides were subjected to an in vivo competition assay in order to identify those with the highest specificity of binding. Equal amounts of phage for the 11 clones displaying peptides WAT1 through WAT7 (SEQ ID NOS: 1-14) and LU1 through LU4 (SEQ ID NOS: 17-24) were admixed and injected into a mouse. Homing specificity of each clone was assessed by quantifying frequency of phage coding for each peptide selected on C34+CD31−CD45− cells isolated from either WAT or lung.
(§7) Shown in Table 1 above are the percent (%) of the sequenced phage clones that carried the indicated WAT or LU insert present within WAT (% in WAT) or lung (% in LUNG) following 4 rounds of synchronous in vivo biopanning on CD34+CD31−CD45− cells.

[3] = tested on: CD34+CD31−CD45− cells (MSC) from lung; assay: Synchronous in vivo phage display biopanning, clones recovered from lung MSC (LSC); parameters: species or system mouse; conditions: percent of sequenced phage clones carrying the insert in lung after 4 rounds of synchronous in vivo biopanning on CD34+CD31−CD45− cells
Description: as §3, §4, §5, §6, §7

[4] = tested on: C34+CD31−CD45− cells isolated from lung; assay: In vivo competition (re-homing) assay of 11 admixed phage clones, lung; parameters: species or system mouse; conditions: equal amounts of 11 phage clones mixed and injected; percent of sequenced clones on C34+CD31−CD45− cells from lung
Procedure: as §4, §6

[5] = tested on: stroma/vasculature of lung; assay: Biodistribution of peptide-displaying phage by anti-phage immunofluorescence, lung; type: in vivo, mouse; conditions: intravenous injection, immunofluorescence of tissue sections
Description: as §1, §2

[6] = tested on: C34+CD31−CD45− cells isolated from WAT; assay: In vivo competition (re-homing) assay of 11 admixed phage clones, WAT; parameters: species or system mouse; conditions: equal amounts of 11 phage clones mixed and injected; percent of sequenced clones on C34+CD31−CD45− cells from WAT
Procedure: as §4, §6

[7] = molecular target: T1, recombinant bacterially-purified full-length core mouse DCN (mDCN) (Mus musculus, UniProt P28654); assay: ELISA binding assay, recombinant full-length core mouse DCN; conditions: His6-tagged protein coated at 10 μg/ml
T1 construct: cloning fragments encoding amino acids 1-354 and 45-354 of mouse DCN cDNA (OriGene); His6; made in house
T1 sequence (P28654 17-354): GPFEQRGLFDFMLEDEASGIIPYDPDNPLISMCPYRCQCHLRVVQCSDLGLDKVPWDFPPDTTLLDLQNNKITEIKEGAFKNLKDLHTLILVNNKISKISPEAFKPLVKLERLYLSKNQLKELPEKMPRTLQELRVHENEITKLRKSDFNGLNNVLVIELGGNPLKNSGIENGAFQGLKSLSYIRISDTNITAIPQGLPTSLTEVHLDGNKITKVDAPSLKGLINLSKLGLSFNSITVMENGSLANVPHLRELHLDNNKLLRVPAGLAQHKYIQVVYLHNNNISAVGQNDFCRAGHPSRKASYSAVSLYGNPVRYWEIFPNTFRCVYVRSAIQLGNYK
Description: Immunoblotting and Binding Assays: Protein preparations resolved on SDS-PAGE were blotted onto Immobilon-FL membrane (Millipore), blocked with Odyssey blocking buffer (Licor Biosciences), and probed (in PBS/0.05% Triton X-100) with goat anti-DCN (R&D Systems, 1:1,000), rabbit anti-ANX2A (Aviva, 1:1,000), rabbit anti-mouse b-actin (Abcam, 1:10,000) antibodies, or pre- and post-immune antisera against WAT7 (1:1,000) as indicated. Signal was detected by Odyssey imaging system using anti-goat IRDye 800CW or anti-rabbit IRDye 680 both from Licor Biosciences. Bovine DCN was from Sigma-Aldrich, NS0-derived murine DCN was from R&D Systems. Murine DCN cDNA was generated from WAT total RNA using SuperScript kit (Invitrogen). For bacterial expression, full-length mouse core DCN and ΔDCN isoforms were produced by cloning fragments encoding amino acids 1-354 and 45-354 of mouse DCN cDNA (OriGene) or of CLIC4 cDNA (OriGene) in-frame with the His6Tag into pET28a vector, respectively. His6-tagged proteins were purified with His-Tag kit (Novagen). […] Bound peptides or FLAG-resistin were probed with corresponding rabbit anti-peptide Genemed antibodies (1:2,000) or rabbit anti-FLAG antibodies (Sigma-Aldrich, 1:2,000) followed by secondary goat anti-rabbit HRP-conjugated antibodies (Millipore, 1:5,000) and signal detection with Ultra-TMB (Pierce) substrate and measurement of absorbance at 450 nm. […]

co-localization with endothelial cells or CD45+ hematopoietic cells in WAT [1] | Molecule | % in WAT [2] [%] | % in LUNG [3] [%] | Re-home to Lung (%) [4] [%] | phage accumulation in lung [5] | Re-home to WAT (%) [6] [%] | binding to recombinant core mouse DCN (OD450) [7]
did not co-localize | NCCCC[C@@H]1NC(=O)[C@H](Cc2c[nH]c3ccccc23)NC(=O)[C@H](CO)NC(=O)[C@@H](N)CSSC[C@@H](C(=O)O)NC(=O)[C@H](CCC(=O)O)NC(=O)CNC(=O)[C@H](Cc2ccccc2)NC(=O)[C@H](Cc2c[nH]c3ccccc23)NC(=O)[C@H](Cc2ccc(O)cc2)NC1=O [WAT-7, SWKYWFGE] | – | – | – | – | – | –
– | ESGFPTVG [LU-2, control] | 0 | 14.7 | 40.2 | associated with the stroma/vasculature of lung | – | –
– | YKNVDSGG [WAT-2, used as control peptide] | 2.9 | 0 | 2.9 | – | 2.1 | did not display DCN binding
